Measured values: the NIST ThermoML archive (doi:10.1016/j.jct.2007.01.009)
± gives the expanded uncertainty stated by the source.

Test: xn = mol fraction of the nth substance listed
Settings: 101 kPa, Liquid, Pycnometric method

A mass density (283.15 K, x1 = 0.0008) of 999.67 ± 0.3 kg/m3, a mass density (283.15 K, x1 = 0.002) of 999.6 ± 0.3 kg/m3 and a mass density (283.15 K, x1 = 0.0037) of 999.53 ± 0.3 kg/m3 were found for `CC(O)CCC(C)O` (stereo not drawn) [2,5-hexanediol] + O in this work. For the same compound, the mass density (283.15 K, x1 = 0.0073) was 999.48 ± 0.3 kg/m3, the mass density (283.15 K, x1 = 0.009) was 999.54 ± 0.31 kg/m3 and the mass density (283.15 K, x1 = 0.0102) was 999.61 ± 0.31 kg/m3. For the same compound, the mass density (283.15 K, x1 = 0.0123) was 999.75 ± 0.31 kg/m3, the mass density (283.15 K, x1 = 0.0142) was 999.92 ± 0.31 kg/m3 and the mass density (283.15 K, x1 = 0.0159) was 1000.08 ± 0.31 kg/m3. It also gave a mass density (283.15 K, x1 = 0.0177) of 1000.27 ± 0.31 kg/m3, a mass density (283.15 K, x1 = 0.0263) of 1001.32 ± 0.31 kg/m3 and a mass density (283.15 K, x1 = 0.0353) of 1002.49 ± 0.31 kg/m3. The mass density (283.15 K, x1 = 0.0516) was 1004.41 ± 0.31 kg/m3, the mass density (283.15 K, x1 = 0.0672) was 1005.71 ± 0.31 kg/m3 and the mass density (283.15 K, x1 = 0.0688) was 1005.83 ± 0.32 kg/m3. For the same compound, the mass density (283.15 K, x1 = 0.0821) was 1006.35 ± 0.32 kg/m3, the mass density (283.15 K, x1 = 0.098) was 1006.33 ± 0.32 kg/m3 and the mass density (283.15 K, x1 = 0.112) was 1005.71 ± 0.32 kg/m3. It also gave a mass density (288.15 K, x1 = 0.0008) of 999.06 ± 0.29 kg/m3, a mass density (288.15 K, x1 = 0.002) of 998.98 ± 0.29 kg/m3 and a mass density (288.15 K, x1 = 0.0037) of 998.88 ± 0.29 kg/m3. The mass density (288.15 K, x1 = 0.0073) was 998.82 ± 0.29 kg/m3, the mass density (288.15 K, x1 = 0.009) was 998.85 ± 0.29 kg/m3 and the mass density (288.15 K, x1 = 0.0102) was 998.88 ± 0.29 kg/m3. For the same compound, the mass density (288.15 K, x1 = 0.0123) was 998.97 ± 0.29 kg/m3, the mass density (288.15 K, x1 = 0.0142) was 999.08 ± 0.29 kg/m3 and the mass density (288.15 K, x1 = 0.0159) was 999.2 ± 0.3 kg/m3. It also gave a mass density (288.15 K, x1 = 0.0177) of 999.34 ± 0.29 kg/m3, a mass density (288.15 K, x1 = 0.0263) of 1000.14 ± 0.3 kg/m3 and a mass density (288.15 K, x1 = 0.0353) of 1001.07 ± 0.3 kg/m3. For the same compound, the mass density (288.15 K, x1 = 0.0516) was 1002.55 ± 0.3 kg/m3, the mass density (288.15 K, x1 = 0.0672) was 1003.37 ± 0.3 kg/m3 and the mass density (288.15 K, x1 = 0.0688) was 1003.42 ± 0.3 kg/m3. For the same compound, the mass density (288.15 K, x1 = 0.0821) was 1003.53 ± 0.3 kg/m3, the mass density (288.15 K, x1 = 0.098) was 1003.14 ± 0.3 kg/m3 and the mass density (288.15 K, x1 = 0.112) was 1002.53 ± 0.31 kg/m3. The mass density (293.15 K, x1 = 0.0008) was 998.13 ± 0.28 kg/m3, the mass density (293.15 K, x1 = 0.002) was 998.04 ± 0.28 kg/m3 and the mass density (293.15 K, x1 = 0.0037) was 997.94 ± 0.28 kg/m3. The mass density (293.15 K, x1 = 0.0073) was 997.86 ± 0.28 kg/m3, the mass density (293.15 K, x1 = 0.009) was 997.84 ± 0.28 kg/m3 and the mass density (293.15 K, x1 = 0.0102) was 997.84 ± 0.28 kg/m3. The mass density (293.15 K, x1 = 0.0123) was 997.89 ± 0.28 kg/m3, the mass density (293.15 K, x1 = 0.0142) was 997.96 ± 0.28 kg/m3 and the mass density (293.15 K, x1 = 0.0159) was 998.04 ± 0.28 kg/m3. For the same compound, the mass density (293.15 K, x1 = 0.0177) was 998.14 ± 0.28 kg/m3, the mass density (293.15 K, x1 = 0.0263) was 998.73 ± 0.29 kg/m3 and the mass density (293.15 K, x1 = 0.0353) was 999.39 ± 0.29 kg/m3. It also gave a mass density (293.15 K, x1 = 0.0516) of 1000.35 ± 0.29 kg/m3, a mass density (293.15 K, x1 = 0.0672) of 1000.75 ± 0.29 kg/m3 and a mass density (293.15 K, x1 = 0.0688) of 1000.76 ± 0.29 kg/m3. The mass density (293.15 K, x1 = 0.0821) was 1000.63 ± 0.29 kg/m3, the mass density (293.15 K, x1 = 0.098) was 1000.02 ± 0.29 kg/m3 and the mass density (293.15 K, x1 = 0.112) was 999.19 ± 0.29 kg/m3. The mass density (298.15 K, x1 = 0.0008) was 996.94 ± 0.29 kg/m3, the mass density (298.15 K, x1 = 0.002) was 996.84 ± 0.29 kg/m3 and the mass density (298.15 K, x1 = 0.0037) was 996.73 ± 0.29 kg/m3. The mass density (298.15 K, x1 = 0.0073) was 996.6 ± 0.29 kg/m3, the mass density (298.15 K, x1 = 0.009) was 996.58 ± 0.29 kg/m3 and the mass density (298.15 K, x1 = 0.0102) was 996.58 ± 0.29 kg/m3. The mass density (298.15 K, x1 = 0.0123) was 996.6 ± 0.29 kg/m3, the mass density (298.15 K, x1 = 0.0142) was 996.64 ± 0.29 kg/m3 and the mass density (298.15 K, x1 = 0.0159) was 996.68 ± 0.29 kg/m3. The mass density (298.15 K, x1 = 0.0177) was 996.74 ± 0.29 kg/m3, the mass density (298.15 K, x1 = 0.0263) was 997.13 ± 0.3 kg/m3 and the mass density (298.15 K, x1 = 0.0353) was 997.56 ± 0.3 kg/m3. The mass density (298.15 K, x1 = 0.0516) was 998.09 ± 0.3 kg/m3, the mass density (298.15 K, x1 = 0.0672) was 998.16 ± 0.3 kg/m3 and the mass density (298.15 K, x1 = 0.0688) was 998.14 ± 0.3 kg/m3. For the same compound, the mass density (298.15 K, x1 = 0.0821) was 997.8 ± 0.3 kg/m3, the mass density (298.15 K, x1 = 0.098) was 996.97 ± 0.3 kg/m3 and the mass density (298.15 K, x1 = 0.112) was 996.16 ± 0.3 kg/m3. For the same compound, the mass density (303.15 K, x1 = 0.0008) was 995.52 ± 0.31 kg/m3, the mass density (303.15 K, x1 = 0.002) was 995.4 ± 0.3 kg/m3 and the mass density (303.15 K, x1 = 0.0037) was 995.27 ± 0.3 kg/m3. It also gave a mass density (303.15 K, x1 = 0.0073) of 995.14 ± 0.3 kg/m3, a mass density (303.15 K, x1 = 0.009) of 995.09 ± 0.3 kg/m3 and a mass density (303.15 K, x1 = 0.0102) of 995.07 ± 0.3 kg/m3. The mass density (303.15 K, x1 = 0.0123) was 995.05 ± 0.3 kg/m3, the mass density (303.15 K, x1 = 0.0142) was 995.05 ± 0.3 kg/m3 and the mass density (303.15 K, x1 = 0.0159) was 995.06 ± 0.3 kg/m3. The mass density (303.15 K, x1 = 0.0177) was 995.07 ± 0.31 kg/m3, the mass density (303.15 K, x1 = 0.0263) was 995.23 ± 0.31 kg/m3 and the mass density (303.15 K, x1 = 0.0353) was 995.43 ± 0.31 kg/m3. For the same compound, the mass density (303.15 K, x1 = 0.0516) was 995.59 ± 0.31 kg/m3, the mass density (303.15 K, x1 = 0.0672) was 995.35 ± 0.31 kg/m3 and the mass density (303.15 K, x1 = 0.0688) was 995.31 ± 0.31 kg/m3. It also gave a mass density (303.15 K, x1 = 0.0821) of 994.75 ± 0.31 kg/m3, a mass density (303.15 K, x1 = 0.098) of 993.8 ± 0.31 kg/m3 and a mass density (303.15 K, x1 = 0.112) of 992.78 ± 0.31 kg/m3. The mass density (308.15 K, x1 = 0.0008) was 993.87 ± 0.32 kg/m3, the mass density (308.15 K, x1 = 0.002) was 993.73 ± 0.32 kg/m3 and the mass density (308.15 K, x1 = 0.0037) was 993.58 ± 0.32 kg/m3. It also gave a mass density (308.15 K, x1 = 0.0073) of 993.42 ± 0.32 kg/m3, a mass density (308.15 K, x1 = 0.009) of 993.35 ± 0.32 kg/m3 and a mass density (308.15 K, x1 = 0.0102) of 993.31 ± 0.32 kg/m3. The mass density (308.15 K, x1 = 0.0123) was 993.25 ± 0.32 kg/m3, the mass density (308.15 K, x1 = 0.0142) was 993.21 ± 0.32 kg/m3 and the mass density (308.15 K, x1 = 0.0159) was 993.19 ± 0.32 kg/m3. The mass density (308.15 K, x1 = 0.0177) was 993.17 ± 0.32 kg/m3, the mass density (308.15 K, x1 = 0.0263) was 993.17 ± 0.32 kg/m3 and the mass density (308.15 K, x1 = 0.0353) was 993.19 ± 0.32 kg/m3. The mass density (308.15 K, x1 = 0.0516) was 993 ± 0.32 kg/m3, the mass density (308.15 K, x1 = 0.0672) was 992.44 ± 0.32 kg/m3 and the mass density (308.15 K, x1 = 0.0688) was 992.36 ± 0.32 kg/m3. For the same compound, the mass density (308.15 K, x1 = 0.0821) was 991.62 ± 0.32 kg/m3, the mass density (308.15 K, x1 = 0.098) was 990.55 ± 0.32 kg/m3 and the mass density (308.15 K, x1 = 0.112) was 989.51 ± 0.33 kg/m3.
